According to PubChem BioAssay (NCI):
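Values below derive from 48-hour exposures of cells grown in 96-well plates, with endpoints linearly interpolated between the two concentrations bracketing the appropriate inhibition level. TGI: total growth inhibition.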

How the values were obtained:
Assay in all cases: growth of human tumour cells (NCI), 48 h
[1] = system: SF-539 CNS
[2] = system: SK-MEL-5 melanoma
[3] = system: U251 CNS
[4] = system: OVCAR-4 ovarian
[5] = system: HCT-116 colon
[6] = system: UO-31 renal
[7] = system: MDA-N
[8] = system: NCI-H226 lung
[9] = system: SF-295 CNS
[10] = system: EKVX NSCLC

SMILES | TGI [1] [µM] | TGI [2] [µM] | TGI [3] [µM] | TGI [4] [µM] | TGI [5] [µM] | TGI [6] [µM] | TGI [7] [µM] | TGI [8] [µM] | TGI [9] [µM] | TGI [10] [µM]
CC1=CC2(C)C=C[C@@H]1C(=O)[C@@]1(C)CC[C@@](O)(C(C)C)[C@H]1CC2 | 35 | 34 | 33.1 | 38.2 | 32.2 | 31.4 | 47.5 | 43.8 | 38.1 | 63.1
COc1ccc(COCC[C@H](C)OC2OC(CO[Si](C)(C)C(C)(C)C)C(O)C(O)C2O)cc1 (stereo partly drawn) | > 100 | > 100 | > 100 | > 100 | > 100 | > 100 | > 100 | > 100 | > 100 | > 100
COC1(OC)CCN(Cc2ccccc2)C1=O | 28.6 | 29.2 | 34.1 | 30.6 | 13.9 | 22.8 | 22.6 | 38.9 | 53.9 | 29.7
COc1cc(-c2nc(N)c(C#N)c3c2CCS(=O)(=O)c2ccc(C)cc2-3)cc(OC)c1OC | – | > 100 | > 100 | > 100 | > 100 | > 100 | > 100 | 51.1 | – | –
CCOC(=O)/C(C1=NCCN1C)=C(\O)c1ccccc1 | – | > 100 | > 100 | > 100 | > 100 | > 100 | – | > 100 | > 100 | > 100
Nc1ncnc2c1ccn2CC#CCO | > 100 | > 100 | > 100 | > 100 | > 100 | > 100 | > 100 | – | > 100 | > 100
C1=NN2C(c3ccccc3)=NOC2C2C(c3ccccc3)=NOC12 (stereo not drawn) | > 100 | > 100 | – | – | > 100 | > 100 | > 100 | > 100 | > 100 | > 100
COc1cc2c(cc1NC(=O)c1ccccc1)c1c(n2S(=O)(=O)c2ccccc2)CCN(S(=O)(=O)c2ccccc2)C1 | – | > 100 | > 100 | > 100 | > 100 | – | – | > 100 | – | –
Cc1cc(NS(=O)(=O)c2ccc(NO)cc2)no1 | > 100 | > 100 | – | > 100 | > 100 | > 100 | 44.4 | > 100 | – | > 100
COC(=O)c1cc(/C=C/C(=O)Cc2ccccc2)cn1S(=O)(=O)c1ccccc1 | > 100 | > 100 | – | > 100 | > 100 | > 100 | > 100 | – | > 100 | > 100
CC1(C)CC(=O)c2c(-c3ccc(Cl)cc3)c(C#N)c(=S)n(C3OC(CO)C(O)C(O)C3O)c2C1 (stereo not drawn) | > 100 | 34.8 | > 100 | > 100 | > 100 | 98.8 | 58.3 | 73 | > 100 | –
O=c1ccn(C/C=C/c2ccccc2)c(=S)n1C/C=C/c1ccccc1 | – | > 100 | > 100 | > 100 | > 100 | > 100 | > 100 | > 100 | > 100 | > 100
O=C(c1ccccc1)c1ccc(N2C(=O)/C(=C/c3cccc(Oc4ccccc4)c3)N=C2c2ccccc2)c(N2C(=O)/C(=C/c3cccc(Oc4ccccc4)c3)N=C2c2ccccc2)c1 | – | 30.7 | > 100 | > 100 | > 100 | > 100 | 69 | – | > 100 | > 100
CC1(C)N=C(C(N)=O)c2ncn(Cc3ccccc3)c2N1 | > 100 | > 100 | > 100 | > 100 | > 100 | – | > 100 | > 100 | > 100 | > 100
COc1ccc2nc3ccc(OC)cc3c(S(=O)Cc3ccccc3)c2c1 (stereo not drawn) | 27.2 | 30.5 | > 56.1 | 30.2 | 6.3 | 22.8 | – | 38.5 | 35.4 | 30.5
COc1ccc(S(=O)(=O)N/N=C(\C)CN2C(=O)c3ccccc3C2=O)cc1OC | > 100 | > 100 | > 100 | > 100 | > 100 | > 100 | – | > 100 | > 100 | > 100
Cc1c(-c2coc(-c3ccc([N+](=O)[O-])cc3)n2)c(=O)n(-c2ccccc2)n1C | > 100 | > 100 | > 100 | > 100 | > 100 | > 100 | – | > 100 | > 100 | > 100
CCOC(=O)N1c2ccccc2N(C(=O)OCC)C1CC(=O)/C=C/c1ccccc1 | – | 8.92 | 12.8 | 6.33 | 11.6 | 14.7 | 15.8 | 6.04 | 21.7 | 8.54
COc1nc(=O)[nH]c2c1C(c1ccc([N+](=O)[O-])cc1)c1c(OC)nc(=O)[nH]c1O2 | – | > 100 | > 100 | > 100 | > 100 | > 100 | > 100 | > 100 | > 100 | > 100
Cc1n[nH]c(=O)n1/N=C/c1ccco1 | > 100 | – | > 100 | > 100 | > 100 | > 100 | – | > 100 | > 100 | > 100
Cc1cc(-c2nc3cc(F)ccc3s2)ccc1N | 46.1 | > 82.3 | > 91.7 | – | > 91 | 99.4 | > 100 | > 93.6 | > 100 | > 85.3
O=C1CSC(c2ccccc2)N1c1ccc(-c2ccc(-n3c(-c4ccccc4)nc4ccccc4c3=O)cc2)cc1 (stereo not drawn) | – | > 100 | > 100 | > 100 | – | > 100 | > 100 | – | > 100 | > 100
COc1ccc2nc3cccc([N+](=O)[O-])c3c(NCCC(=O)O)c2c1 | > 10 | > 10 | > 10 | > 10 | > 10 | – | > 10 | > 10 | > 10 | > 10
CN(C)c1n2c3ccc([N+](=O)[O-])cc3n3c(N(C)C)[n+]4ccccc4c3c2c2cccc[n+]12 | – | > 100 | > 100 | > 100 | > 100 | > 100 | > 100 | > 100 | > 100 | > 100

SMILES | TGI [1] [µM] | TGI [2] [µM] | TGI [3] [µM] | TGI [4] [µM] | TGI [5] [µM] | TGI [6] [µM] | TGI [7] [µM] | TGI [8] [µM] | TGI [9] [µM] | TGI [10] [µM]
N#Cc1c(-c2ccccc2)cn(C(=O)c2ccccc2)c1N | – | > 100 | > 100 | > 100 | > 100 | > 100 | > 100 | > 100 | > 100 | > 100
CN1C(=O)C(=Cc2ccc(Br)cc2)C(=O)N(C)C1=O | – | > 100 | > 100 | > 100 | > 100 | > 100 | – | > 100 | > 100 | > 100
O=C1CCC(=O)c2ccccc2N1 | > 100 | > 100 | > 100 | > 100 | > 100 | > 100 | – | > 100 | > 100 | > 100
Cc1cn(CC(=S)NCCc2c[nH]c3ccccc23)c(=O)[nH]c1=O | > 100 | > 100 | > 100 | > 100 | > 100 | > 100 | > 100 | > 100 | – | > 100
CCCCCN1C(=O)C(Cc2ccccc2)N=C(c2ccc(O)cc2)c2cc(Cl)ccc21 (stereo not drawn) | 38.9 | – | 27.2 | 22.1 | 21.5 | 25.3 | > 40.3 | 26.3 | 20.7 | 25.6
O=C(O)C12C3CCC(C3)C1(C(=O)O)C1CCC2C1 (stereo not drawn) | – | > 100 | – | – | > 100 | > 100 | – | > 100 | > 100 | > 100
N#CCCC(C#N)(C#N)CCC#N | > 100 | > 100 | > 100 | – | > 100 | > 100 | – | > 100 | > 100 | > 100
Nc1ccc(Oc2ccc(C34CC5C6CC7(c8ccc(Oc9ccc(N)cc9)cc8)CC5C(C3)C(C7)C6C4)cc2)cc1 | – | > 100 | > 100 | > 100 | > 100 | > 100 | > 100 | > 100 | > 100 | > 100
Cc1ccc(S(=O)(=O)c2ccc(C)cc2[N+](=O)[O-])c([N+](=O)[O-])c1 | > 100 | > 100 | > 100 | > 100 | > 100 | > 100 | – | > 100 | > 100 | > 100
COc1ccc(/C(C)=C2\CCCN(Cc3ccccc3)C2)cc1 | 35.2 | 36.8 | 40.3 | > 100 | – | 44.1 | 47.7 | 63.6 | 35.1 | > 100
COc1cc2ccnc(C#N)c2cc1OCc1ccccc1 | > 100 | > 100 | > 100 | > 100 | > 100 | > 100 | – | – | > 100 | > 100
Nc1c(F)c(F)c2c(c1F)N(CCCCCl)c1ccccc1S2 | > 100 | > 100 | > 100 | > 100 | > 100 | > 100 | – | > 100 | > 100 | –
CC(CC(=O)N1C2CC3CCC2(CS1(=O)=O)C3(C)C)[Si](C)(C)C (stereo not drawn) | > 100 | > 100 | > 100 | – | > 100 | > 100 | > 100 | > 100 | > 100 | > 100
O=c1[nH]c(=O)n([C@H]2C[C@@H](CO)[C@@H](O)C2)cc1I | > 100 | > 100 | > 100 | > 100 | > 100 | > 100 | – | > 100 | – | > 100
COc1ccccc1N1CCN(S(=O)(=O)c2ccc(Cl)cc2)C1=N | > 100 | > 100 | > 100 | > 100 | > 100 | > 100 | > 100 | – | > 100 | > 100
CC(=O)N1C(c2[nH]c3ccccc3c2Cc2ccccc2)CCN1c1ccccc1 (stereo not drawn) | > 10 | > 10 | – | > 10 | > 10 | > 10 | > 10 | > 10 | > 10 | > 10
c1ccc2c(c1)nc1ccccn12 | > 100 | > 100 | > 100 | – | > 100 | > 100 | > 100 | > 100 | > 100 | > 100
CC(C)CCNC(=O)c1ccc(CNC(=O)/C=C/c2ccc3ccccc3c2)cc1 | – | > 100 | > 100 | > 100 | > 100 | > 100 | > 100 | > 100 | > 100 | > 100
O=C1C(Cl)C(c2ccc(O)cc2)N1n1cnc2ccccc2c1=O (stereo not drawn) | > 100 | > 100 | > 100 | > 94 | 33 | > 100 | – | > 100 | > 100 | > 100
Cc1c2c(n3c(nc4ccccc43)c1C#N)N(c1ccc(F)cc1)CC2 | > 100 | > 100 | > 100 | > 100 | > 100 | > 100 | – | > 100 | > 100 | –
Cc1cc2c(cc1Cl)SC(NNCCO)=NS2(=O)=O | > 100 | > 100 | > 100 | > 100 | > 100 | > 100 | – | > 100 | > 100 | > 100
COC(=O)C(=O)C(C(=O)OC)C(=O)C(=O)Nc1cc(Cl)c(C)cc1S(=O)(=O)O (stereo not drawn) | > 100 | > 100 | > 100 | > 100 | > 100 | > 100 | – | > 100 | > 100 | > 100
COC(C)=NCCC1=CCCCC1 | – | > 100 | > 100 | > 100 | > 100 | > 100 | > 100 | – | > 100 | > 100
COP12(OC)NC(=O)OC1(C(F)(F)F)c1ccccc1O2 (stereo not drawn) | > 100 | > 100 | – | > 100 | > 100 | – | – | > 100 | > 100 | –
